pIC50: −log10 of the molar value.
Tests used:
[1] = biological target: T1, PI3K delta (Homo sapiens, UniProt O00329); experiment: PI3K delta kinase assay (Kinase-Glo luminescence); format: biochemical
T1 construct: for the full-length p110-d subunit are generated and fused by overlapping PCR; p85(iSH2) fusion partner (see partner chain) (N); His tag (C); made in house; host or cells: baculovirus; Tn5 (Trichoplusia ni) or TiniPro insect cells
Summary of the method: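 Inhibition is derived from luminescent detection of unconsumed ATP. The reaction runs for one hour at ambient temperature and contains the δ isoform fusion protein, phosphatidylinositol substrate and low (1 μM) ATP. Eight compound concentrations are tested in single, and a 4-parameter logistic model is used to calculate IC50.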

[2] = system: PKB Ser473 phosphorylation in Rat1-myr-HA-p110 beta cells; experiment: Reverse protein array assay, PKB Ser473 phosphorylation in Rat1-myr-p110 beta cells; format: cell-based; conditions: 0.5 h, pAkt Ser473, 30 minutes incubation, read-out: p-PKB IC50
Summary of the method: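 Cells: Rat1-myr-HA-p110 alpha/beta/delta, seeded ≥20 h. Lysis on ice 10 min; reverse-phase protein array, 4 lysate dilutions; fluorescence read, relative intensity.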

[3] = system: S6 Ribosomal Protein phosphorylation Ser235/236 in TSC1 null mouse embryo fibroblast (MEF) cells; experiment: Reverse protein array assay, S6 Ribosomal Protein phosphorylation Ser235/236 in TSC1 null MEF cells; format: cell-based; conditions: 1 h, pS6 ribosomal protein Ser235/236, 60 minutes incubation, read-out: p-S6 IC50
Summary of the method: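 TSC1−/− MEFs, seeded and held ≥20 h at 37 °C/5% CO2, were exposed to 8-step serial compound dilutions (0.02% DMSO final; DMSO vehicle control) for 60 min at 37 °C. Cells were then lysed on ice for 10 min and lysates spotted onto reverse protein array chips.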

T1 sequence (O00329 with tags, fused parts or gaps limits assumed): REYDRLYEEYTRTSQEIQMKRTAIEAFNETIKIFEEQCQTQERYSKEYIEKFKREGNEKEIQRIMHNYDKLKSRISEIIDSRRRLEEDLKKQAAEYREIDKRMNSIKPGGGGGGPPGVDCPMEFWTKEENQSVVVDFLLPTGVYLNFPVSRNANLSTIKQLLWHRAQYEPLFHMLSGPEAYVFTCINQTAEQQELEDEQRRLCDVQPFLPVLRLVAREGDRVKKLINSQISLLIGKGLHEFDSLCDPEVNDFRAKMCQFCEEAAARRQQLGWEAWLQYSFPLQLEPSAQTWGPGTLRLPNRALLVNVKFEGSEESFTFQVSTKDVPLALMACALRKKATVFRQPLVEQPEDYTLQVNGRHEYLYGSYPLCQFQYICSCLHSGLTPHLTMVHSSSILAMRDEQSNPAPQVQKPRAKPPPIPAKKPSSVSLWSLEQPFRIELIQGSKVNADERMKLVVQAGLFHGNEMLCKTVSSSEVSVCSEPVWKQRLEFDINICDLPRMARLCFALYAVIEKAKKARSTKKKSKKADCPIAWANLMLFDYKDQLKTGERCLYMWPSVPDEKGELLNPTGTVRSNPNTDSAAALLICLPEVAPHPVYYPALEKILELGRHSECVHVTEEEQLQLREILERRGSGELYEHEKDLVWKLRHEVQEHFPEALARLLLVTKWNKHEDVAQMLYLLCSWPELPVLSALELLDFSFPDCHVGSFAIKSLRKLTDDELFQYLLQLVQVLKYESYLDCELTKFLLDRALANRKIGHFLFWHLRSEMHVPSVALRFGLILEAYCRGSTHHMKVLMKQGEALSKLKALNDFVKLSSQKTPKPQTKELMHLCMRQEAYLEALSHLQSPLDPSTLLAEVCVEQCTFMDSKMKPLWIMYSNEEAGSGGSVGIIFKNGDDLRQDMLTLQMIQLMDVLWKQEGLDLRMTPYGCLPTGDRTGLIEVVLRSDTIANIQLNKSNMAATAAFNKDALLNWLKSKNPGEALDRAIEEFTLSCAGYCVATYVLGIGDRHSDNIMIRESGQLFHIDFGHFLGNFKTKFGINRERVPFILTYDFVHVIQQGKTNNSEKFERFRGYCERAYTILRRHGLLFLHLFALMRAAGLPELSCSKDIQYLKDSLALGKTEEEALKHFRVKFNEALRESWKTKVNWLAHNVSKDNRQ

| SMILES | pIC50 [1] | pIC50 [2] | pIC50 [3] |
| --- | --- | --- | --- |
| CNC(=O)c1cc(-c2ccc3ncc4c(c3c2)n(-c2cn(C(C)C)nc2C)c(=O)n4C)cnc1N [Example 224.2, 2-Amino-5-[1-(1-isopropyl-3-methyl-1H-pyrazol-4-yl)-3-methyl-2-oxo-2,3-dihydro-1H-imidazo[4,5-c]quinolin-8-yl]-N-methyl-nicotinamide] | 7.39 | 6.89 | 7.70 |
| COc1ccc(-c2ccc3ncc4[nH]c(=O)n(-c5cn(C)nc5C)c4c3n2)cc1OC [Example 249, 8-(3,4-dimethoxy-phenyl)-1-(1,3-dimethyl-1H-pyrazol-4-yl)-1,3-dihydro-1,3,5,9-tetraaza-cyclopenta[a]naphthalen-2-one] | 8.10 | 7.66 | 8.70 |
| COc1ccc(-c2ccc3ncc4c(c3n2)n(-c2cn(C)nc2C)c(=O)n4C)cc1OC [Example 250, 8-(3,4-Dimethoxy-phenyl)-1-(1,3-dimethyl-1H-pyrazol-4-yl)-3-methyl-1,3-dihydro-1,3,5,9-tetraaza-cyclopenta[a]naphthalen-2-one] | 7.77 | 7.01 | 7.89 |

Second part, led by results:

| pIC50 [1] | pIC50 [2] | SMILES | pIC50 [3] |
| --- | --- | --- | --- |
| 8.22 | 7.57 | Cc1nn(C)cc1-n1c(=O)n(C)c2cnc3ccc(-c4cncc(C5(O)CCCC5)c4)cc3c21 [Example 218, 1-(1,3-Dimethyl-1H-pyrazol-4-yl)-8-[5-(1-hydroxy-cyclopentyl)-pyridin-3-yl]-3-methyl-1,3-dihydro-imidazo[4,5-c]quinolin-2-one] | > 9.30 |
| 8.10 | 7.74 | Cc1nn(C)cc1-n1c(=O)n(C)c2cnc3ccc(-c4cncc(C(C)(C)C#N)c4)cc3c21 [Example 220.1, 2-{5-[1-(1,3-Dimethyl-1H-pyrazol-4-yl)-3-methyl-2-oxo-2,3-dihydro-1H-imidazo[4,5-c]quinolin-8-yl]-pyridin-3-yl}-2-methyl-propionitrile] | 9.00 |
| > 8.52 | 7.59 | COc1ncc(-c2ccc3ncc4c(c3c2)n(-c2cn(C)nc2C)c(=O)n4C)c(OC)n1 [Example 234.2, 8-(2,4-Dimethoxy-pyrimidin-5-yl)-1-(1,3-dimethyl-1H-pyrazol-4-yl)-3-methyl-1,3-dihydro-imidazo[4,5-c]quinolin-2-one] | 9.00 |

Reference: patent publication US20140005163A1 (NOVARTIS AG, priority 2010, published 2014)
